Reference: ChEMBL document CHEMBL4400537, “Virtual Screening Identifies Irreversible FMS-like Tyrosine Kinase 3 Inhibitors with Activity toward Resistance-Conferring Mutations” (J Med Chem, 2019)
The source made the active and inactive calls. No cut-off for these calls is given here.

Columns and labels:
[1] = Toxicity in zebrafish embryo assessed as mortality at 10 uM measured 120 hpf by fluorescence microscopy; parameters: species or system Danio rerio; details: in vivo
[2] = system: MV4-11; experiment: cells; details: Homo sapiens, MV4-11, 72 h
[3] = physchem; details: potassium phosphate buffer with reduced glutathione
[4] = system: T1, Receptor-type tyrosine-protein kinase FLT3 (Homo sapiens), P36888 [D835Y]; experiment: Irreversible inhibition of recombinant human FLT3 D835Y mutant (571 to 993 residues) expressed in baculovirus expression system at 1 uM preincubated for 5 to 30 mins followed by myelobasic protein addition measured after 120 mins using BODIPY-tagged compounds in presence of ATP by ADP-Glo assay relative to control
T1 sequence (whole entry): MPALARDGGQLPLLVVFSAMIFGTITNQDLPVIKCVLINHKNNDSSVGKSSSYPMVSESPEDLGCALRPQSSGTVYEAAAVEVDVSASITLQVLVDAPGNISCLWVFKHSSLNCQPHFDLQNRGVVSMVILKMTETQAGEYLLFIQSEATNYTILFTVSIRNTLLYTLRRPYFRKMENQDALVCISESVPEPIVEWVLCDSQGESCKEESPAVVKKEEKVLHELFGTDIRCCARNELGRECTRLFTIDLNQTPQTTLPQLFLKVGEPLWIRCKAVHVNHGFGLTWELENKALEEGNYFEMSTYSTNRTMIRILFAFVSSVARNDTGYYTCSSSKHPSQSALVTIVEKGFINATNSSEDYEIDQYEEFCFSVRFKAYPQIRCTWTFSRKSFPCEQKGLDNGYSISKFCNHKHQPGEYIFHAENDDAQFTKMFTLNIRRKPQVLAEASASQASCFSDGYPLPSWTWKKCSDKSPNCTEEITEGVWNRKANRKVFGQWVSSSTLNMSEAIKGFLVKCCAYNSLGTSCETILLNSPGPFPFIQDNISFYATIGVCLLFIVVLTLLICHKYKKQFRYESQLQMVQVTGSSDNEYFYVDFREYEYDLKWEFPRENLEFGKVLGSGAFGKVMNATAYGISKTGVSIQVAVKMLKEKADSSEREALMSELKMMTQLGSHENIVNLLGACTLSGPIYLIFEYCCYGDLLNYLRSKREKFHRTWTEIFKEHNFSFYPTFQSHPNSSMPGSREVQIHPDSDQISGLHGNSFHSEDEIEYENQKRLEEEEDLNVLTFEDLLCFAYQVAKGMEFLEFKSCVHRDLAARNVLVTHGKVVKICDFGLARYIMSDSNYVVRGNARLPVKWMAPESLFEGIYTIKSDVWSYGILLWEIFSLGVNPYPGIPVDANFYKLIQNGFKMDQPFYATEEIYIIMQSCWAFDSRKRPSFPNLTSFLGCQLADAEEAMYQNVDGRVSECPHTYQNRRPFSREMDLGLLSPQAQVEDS

[5] = system: T1, Receptor-type tyrosine-protein kinase FLT3 (Homo sapiens), P36888 [D835Y]; experiment: Covalent binding affinity to recombinant human FLT3 D835Y mutant (571 to 993 residues) expressed in baculovirus expression system at 50 uM by Western blot analysis
[6] = system: T1, Receptor-type tyrosine-protein kinase FLT3 (Homo sapiens), P36888 [D835Y]; experiment: Covalent binding affinity to recombinant human FLT3 D835Y mutant (571 to 993 residues) expressed in baculovirus expression system at 100 uM by Western blot analysis
[7] = Drug uptake in zebrafish embryo gastrointestine at 10 uM starting 1 dpf and measured at 4 dpf by fluorescence microscopy; type: ADME, Danio rerio, Gastrointestinal tract; details: in vivo
[8] = system: THP-1; experiment: cells; details: Homo sapiens, THP-1, 72 h
[9] = system: Jurkat; experiment: cells; details: Homo sapiens, 72 h
[10] = target: Glycogen synthase kinase-3 alpha (Homo sapiens) (UniProt P49840); experiment: Inhibition of human N-terminal His-tagged GSK3alpha expressed in baculovirus expression system at 1 uM relative to control
[11] = target: Glycogen synthase kinase-3 beta (Homo sapiens) (UniProt P49841); experiment: Inhibition of human N-terminal His-tagged GSK3beta expressed in baculovirus expression system at 1 uM relative to control
[12] = system: MV4-11; experiment: Cytotoxicity in human MV4-11 cells assessed as inhibition of cellular viability at 0.5 to 5000 nM incubated for 2 to 8 hrs followed by compound washout by CellTiter-Glo luminescent assay; type: functional, cell-based
[13] = system: MOLM-14; experiment: cells; details: Homo sapiens, MOLM-14, 72 h
[14] = system: T1, Receptor-type tyrosine-protein kinase FLT3 (Homo sapiens), P36888 [D835Y]; experiment: Inhibition of covalent binding of (Z)-N-(2-(2-(4-(2,8-Diethyl-5,5-difluoro-1,3,7,9-tetramethyl-5H-4lambda4,5lambda4-dipyrrolo[1,2-c:2',1'-f ][1,3,2]diazaborinin-10-yl)phenoxy)-acetamido)ethyl)-2,4-dimethyl-5-((2-oxo-5-(vinylsulfon-amido)-indolin-3-ylidene)methyl)-1H-pyrrole-3-carboxamide to recombinant human FLT3 D835Y mutant (571 to 993 residues) expressed in baculovirus expression system at […] by Western blot analysis

Glycogen synthase kinase-3 beta (Homo sapiens), sequence (P49841 whole entry, looked up): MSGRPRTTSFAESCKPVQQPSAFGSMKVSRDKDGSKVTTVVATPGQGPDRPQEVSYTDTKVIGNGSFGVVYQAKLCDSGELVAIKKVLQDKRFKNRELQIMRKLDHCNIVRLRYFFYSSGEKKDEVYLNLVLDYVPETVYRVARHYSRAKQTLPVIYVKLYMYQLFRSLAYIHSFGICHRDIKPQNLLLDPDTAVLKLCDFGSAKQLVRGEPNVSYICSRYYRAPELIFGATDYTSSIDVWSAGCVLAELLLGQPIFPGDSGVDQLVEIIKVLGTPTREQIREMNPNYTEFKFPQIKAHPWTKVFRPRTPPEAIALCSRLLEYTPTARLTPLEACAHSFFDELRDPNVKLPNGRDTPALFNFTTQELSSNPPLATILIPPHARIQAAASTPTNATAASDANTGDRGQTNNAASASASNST
Glycogen synthase kinase-3 alpha (Homo sapiens), sequence (P49840 2-483 limits assumed): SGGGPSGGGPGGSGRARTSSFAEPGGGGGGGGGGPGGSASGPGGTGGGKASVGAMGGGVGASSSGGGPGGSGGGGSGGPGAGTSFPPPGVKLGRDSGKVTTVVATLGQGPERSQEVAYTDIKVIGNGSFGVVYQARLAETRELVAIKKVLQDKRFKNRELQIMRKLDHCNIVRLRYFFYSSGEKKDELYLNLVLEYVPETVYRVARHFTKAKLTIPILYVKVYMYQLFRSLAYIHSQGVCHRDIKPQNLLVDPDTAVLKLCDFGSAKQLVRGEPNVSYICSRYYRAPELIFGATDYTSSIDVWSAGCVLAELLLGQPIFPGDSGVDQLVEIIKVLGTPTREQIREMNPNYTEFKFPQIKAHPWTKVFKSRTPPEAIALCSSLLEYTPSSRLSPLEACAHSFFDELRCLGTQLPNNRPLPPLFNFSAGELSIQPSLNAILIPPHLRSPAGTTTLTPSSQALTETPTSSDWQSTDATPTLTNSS

In the case of `O=C(CF)Nc1ccc2c(c1)/C(=C/c1ccc[nH]1)C(=O)N2`, the Activity [1] is reported as “Toxic”, the IC50 [2] is reported as 845 nM and the half-life at 10 µM [3] is reported as over 24 h.
With `CCC(=O)Nc1ccc2c(c1)/C(=C/c1ccc[nH]1)C(=O)N2` the IC50 [2] was over 1 nM.
Work on `C#CC(=O)Nc1cccc(Nc2nccc(Nc3cc(C4CC4)[nH]n3)n2)c1` yielded an IC50 [2] of over 1 nM.
In the case of `C=CS(=O)(=O)Nc1ccc2c(c1)/C(=C/c1[nH]c(C)c(C(=O)NCCNC(=O)COc3ccc(C4=C5C(C)=C(CC)C(C)=[N+]5[B-](F)(F)n5c(C)c(CC)c(C)c54)cc3)c1C)C(=O)N2`, the inhibition [4] is reported as 89%, the Activity [5] is reported as “Active” and the Activity [6] is reported as “Active”. The Drug uptake [7] was “Active”.
In the case of `O=C(CBr)Nc1ccc2c(c1)/C(=C/c1ccc[nH]1)C(=O)N2`, the Activity [1] is reported as “Toxic” and the IC50 [2] is reported as 653 nM.
For `CCS(=O)(=O)Nc1ccc(Nc2nccc(Nc3cc(C4CC4)[nH]n3)n2)cc1`, the IC50 [2] was 129 nM.
With `C=CS(=O)(=O)Nc1cccc(Nc2nccc(Nc3cc(C4CC4)[nH]n3)n2)c1` the IC50 [2] was 2.3 nM, the IC50 [8] was 172 nM and the IC50 [9] was 44 nM.
With `O=C1Nc2ccccc2/C1=C/c1ccc[nH]1` the inhibition [10] was 12% and the inhibition [11] was -6%.
In the case of `CCC1=C(C)C2=C(c3ccc(OCC(=O)NCCNC(=O)c4c(C)[nH]c(/C=C5\C(=O)Nc6ccc(NC(=O)C(F)(F)F)cc65)c4C)cc3)c3c(C)c(CC)c(C)n3[B-](F)(F)[N+]2=C1C`, the inhibition [4] is reported as 34%, the inhibition [5] is reported as 7% and the Activity [6] is reported as 18%.
With `c1ccc(-c2cnc3[nH]cc(-c4ccccc4)c3c2)cc1` the IC50 [2] was over 1 nM.
For `C=CC(=O)Nc1ccc(Nc2nccc(Nc3cc(C4CC4)[nH]n3)n2)cc1`, the IC50 [2] was 521 nM.
Work on `CC(=O)Nc1ccc(Nc2nccc(Nc3cc(C4CC4)[nH]n3)n2)cc1` yielded an IC50 [2] of over 1 nM.
`C=CC(=O)Nc1ccc2c(c1)/C(=C/c1ccc[nH]1)C(=O)N2` showed an IC50 [2] of over 1 nM.
With `CC1(COc2ccc3c(c2)ncn3-c2ccc3cccc(N4CCC(N)CC4)c3n2)COC1` [CRENOLANIB] the Activity [1] was “Toxic”, the Activity [12] was “Active” and the IC50 [2] was 12 nM. The IC50 [8] was over 1000 nM and the IC50 [9] was over 1000 nM.
Molecule `C=CS(=O)(=O)Nc1ccc(Nc2nccc(Nc3cc(C4CC4)[nH]n3)n2)cc1` has an IC50 [2] of 58 nM, an IC50 [8] of 514 nM and an IC50 [9] of 298 nM.
In the case of `CCN(CC)CCNC(=O)c1c(C)[nH]c(/C=C2\C(=O)Nc3ccc(NC(=O)CCl)cc32)c1C`, the Activity [1] is reported as “Non-Toxic”, the IC50 [2] is reported as 21 nM and the IC50 [8] is reported as over 1000 nM. The IC50 [9] was over 1000 nM, the IC50 [13] was 26.4 nM and the half-life at 10 µM [3] was 3.63 h.
For `CCS(=O)(=O)Nc1ccc2c(c1)/C(=C/c1ccc[nH]1)C(=O)N2`, the IC50 [2] was over 1 nM.
`C#CC(=O)Nc1ccc(Nc2nccc(Nc3cc(C4CC4)[nH]n3)n2)cc1` gave an IC50 [2] of over 1 nM.
`CCN(CC)CCNC(=O)c1c(C)[nH]c(/C=C2\C(=O)Nc3ccc(NC(C)=O)cc32)c1C` showed an IC50 [2] of over 1000 nM.
With `COc1cc(O)c2c(c1)[C@H]1O[C@@H]1C[C@H](O)[C@H](O)C(=O)/C=C\C[C@H](C)OC2=O` [HYPOTHEMYCIN] the Activity [1] was “Toxic”, the IC50 [2] was 15 nM and the IC50 [8] was over 1000 nM. For the same molecule, the IC50 [9] was over 1000 nM.
Molecule `O=C(CCl)Nc1cccc(Nc2nccc(Nc3cc(C4CC4)[nH]n3)n2)c1` has an IC50 [2] of 175 nM.
Work on `c1ccc(-c2cnc3ccccn23)cc1` yielded an IC50 [2] of over 1 nM.
In the case of `CC1=CC(C)=[N+]2C1=Cc1ccc(CCC(=O)NCCNC(=O)c3c(C)[nH]c(/C=C4\C(=O)Nc5ccc(NC(=O)CCl)cc54)c3C)n1[B-]2(F)F`, the inhibition [4] is reported as 55%, the Activity [5] is reported as “Active” and the Drug uptake [7] is reported as “Active”.
In the case of `C=CS(=O)(=O)Nc1ccc2c(c1)/C(=C/c1ccc[nH]1)C(=O)N2`, the IC50 [2] is reported as 67 nM.
For `C#CC(=O)Nc1ccc2c(c1)/C(=C/c1ccc[nH]1)C(=O)N2`, the IC50 [2] was 709 nM.
With `CCC(=O)Nc1cccc(Nc2nccc(Nc3cc(C4CC4)[nH]n3)n2)c1` the IC50 [2] was over 1 nM.
For `CC(=O)Nc1cccc(Nc2nccc(Nc3cc(C4CC4)[nH]n3)n2)c1`, the IC50 [2] was over 1 nM.
With `c1ccc(Nc2nccc(Nc3cc(C4CC4)[nH]n3)n2)cc1` the Activity [1] was “Toxic”, the inhibition [10] was 74% and the inhibition [11] was 76%. For the same molecule, the IC50 [2] was 230 nM.
For `CC(=O)Nc1ccc2c(c1)/C(=C/c1ccc[nH]1)C(=O)N2`, the Activity [1] was “Non-Toxic” and the IC50 [2] was over 1 nM.
For `O=C(O)Cc1c[nH]c2ccccc12`, the inhibition [14] was “Active”.
Work on `C=CC(=O)Nc1cccc(Nc2nccc(Nc3cc(C4CC4)[nH]n3)n2)c1` yielded an IC50 [2] of 787 nM.
For `O=C(CCl)Nc1ccc2c(c1)/C(=C/c1ccc[nH]1)C(=O)N2`, the IC50 [2] was 72 nM.
Work on `CCS(=O)(=O)Nc1cccc(Nc2nccc(Nc3cc(C4CC4)[nH]n3)n2)c1` yielded an IC50 [2] of 489 nM.
For `O=C1Nc2ccccc2/C1=C/c1ccccc1`, the IC50 [2] was over 1 nM.
In the case of `CC(=O)Nc1ccc2c(c1)/C(=C/c1[nH]c(C)c(C(=O)NCCNC(=O)CCc3ccc4n3[B-](F)(F)[N+]3=C(C)C=C(C)C3=C4)c1C)C(=O)N2`, the inhibition [4] is reported as 23%, the Activity [5] is reported as “inactive” and the Activity [6] is reported as “inactive”.
Work on `CCC(=O)Nc1ccc(Nc2nccc(Nc3cc(C4CC4)[nH]n3)n2)cc1` yielded an IC50 [2] of over 1 nM.
With `O=C(CCl)Nc1ccc(Nc2nccc(Nc3cc(C4CC4)[nH]n3)n2)cc1` the IC50 [2] was 141 nM.
`CCN(CC)CCNC(=O)c1c(C)[nH]c(/C=C2\C(=O)Nc3ccc(NS(=O)(=O)CC)cc32)c1C` showed an IC50 [2] of 643 nM.
